Experimental data taken from patent publication US10882865B2, “Pyrrolopyrimidine compounds and uses thereof for modulating glucocerebrosidase activity” (Northwestern University, priority 2018, dated 2021).

Molecular target: T1, glucocerebrosidase (GCase) (Homo sapiens, UniProt P04062)
T1 sequence (P04062 40-536): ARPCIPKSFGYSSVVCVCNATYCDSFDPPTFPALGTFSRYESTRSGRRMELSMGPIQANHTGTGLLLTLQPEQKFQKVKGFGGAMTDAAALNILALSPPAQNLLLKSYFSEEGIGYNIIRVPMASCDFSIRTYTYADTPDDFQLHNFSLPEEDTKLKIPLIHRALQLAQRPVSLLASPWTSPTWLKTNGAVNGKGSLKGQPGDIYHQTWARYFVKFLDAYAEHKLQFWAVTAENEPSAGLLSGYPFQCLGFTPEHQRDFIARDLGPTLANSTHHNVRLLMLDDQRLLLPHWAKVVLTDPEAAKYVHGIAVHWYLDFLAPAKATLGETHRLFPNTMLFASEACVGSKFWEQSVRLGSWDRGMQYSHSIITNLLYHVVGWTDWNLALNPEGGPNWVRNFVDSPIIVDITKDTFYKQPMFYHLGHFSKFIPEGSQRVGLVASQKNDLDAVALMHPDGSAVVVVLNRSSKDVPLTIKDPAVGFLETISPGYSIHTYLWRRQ
Assay: Glucocerebrosidase activation (Table 1, Exemplary Compounds and Activities)
Format: biochemical
Details: activation of glucocerebrosidase; for Emax: read-out: Maximum Activation (Emax)
Source text: The compounds disclosed herein preferably modulate activity of glucocerebrosidase. Modulation may include inhibiting or decreasing glucocerebrosidase activity. Modulation also may include activating or increasing glucocerebrosidase activity. Glucocerebrosidase activity may be assessed utilizing methods known in the art and the methods disclosed herein, including the methods disclosed in the Examples provided herein. In some embodiments, the compounds decrease or increase glucocerebrosidase activity relative to a control (e.g., by at least about 10%, 20%, 30%, 40%, 50%, 60%, 70%, 80%, 90%, 100%, 200%, 300%, 400%, 500%, 600%, 700%, 800%, 900%, 1000% or more (or within a range bounded by any of these values)). In other embodiments, the compounds activate glucocerebrosidase greater than about 2-fold, 3-fold, 4-fold, 5-fold, 10-fold, 20-fold, 30-fold, 40-fold, 50-fold, 60-fold, 70-fold, 80-fold, 90-fold, or 100-fold, relative to a control. […] In other embodiments, an AC50 value for the compound in regard to activation of glucocerebrosidase may be determined and preferably the compound has an AC50 value of less than about 10 μM, 5 μM, or 1 μM, 0.5 μM, 0.1 μM, 0.05 μM, 0.01 μM, 0.005 μM, or 0.001 μM (or within a range bounded by any of these values).
Methods for measuring glucocerebrosidase activity are known in the art. (See, e.g., U.S. Publication No. 2017/0001976 and U.S. Publication No. 2017/0002013 and Zheng et al. “Design and Synthesis of Potent Quinazolines as Selective β-Glucocerebrosidase Modulators, J. Med. Chem. 2016 September 22; 59(18): 8508-8520; the contents of which are incorporated herein by reference in their entireties).
The disclosed pyrrolopyrimidine compounds were synthesized and tested using the methods described below. Additional methods for synthesizing and testing pyrrolopyrimidine compounds are described in the art. (See, e.g., Zheng et al., β-Glucocerebrosidase Modulators Promote Dimerization of β-Glucocerebrosidase and Reveal an Allosteric Binding Site, J. Am. Chem. Soc., 2018, 140 (18), pp 5914-5924; and U.S. Pat. No. 9,802,942; the contents of which are incorporated herein by reference in their entireties).

Row | AC50 [µM] | Emax [%] | SMILES
1 | 3.88 | 750 | Cc1cc(C)n2ccc(C(=O)Nc3ccc4c(c3)C(=O)CCC4)c2n1 [compound 17]
2 | 3.55 | 527 | Cc1cc(C)n2ccc(C(=O)Nc3ccc4c(c3)CCCC4)c2n1 [compound 24]
3 | 39.8 | 914 | Cc1cc(C)n2ccc(C(=O)Nc3c(C)nn(Cc4ccccc4)c3C)c2n1 [compound 33]
4 | 6.1 | 550 | CCOC(=O)Cc1ccc(NC(=O)c2ccn3c(C)cc(C)nc23)cc1 [compound 20]
5 | 4.47 | 374 | Cc1cc(C)n2ccc(C(=O)Nc3ccc(CC(=O)ON4C(=O)CCC4=O)cc3)c2n1 [compound 29]
6 | 1.12 | 290 | Cc1cc(C)n2ccc(C(=O)Nc3ccc4c(c3)CCC4)c2n1 [compound 26]
7 | 0.71 | 250 | CCOC(=O)c1ccc(NC(=O)c2ccn3c(C)cc(C)nc23)cc1 [compound 19]
8 | 1.42 | 280 | Cc1cc(C)n2ccc(C(=O)Nc3cccc(Oc4ccccc4)c3)c2n1 [compound 36]
9 | 3.16 | 796 | CCOC(=O)Cc1cc(NC(=O)c2ccn3c(C)cc(C)nc23)ccc1CCCOCCOCCOCCOCCNC(=O)C1CCCCC1 [compound 48]
10 | 1.12 | 230 | Cc1cc(C)n2ccc(C(=O)Nc3nc4c(s3)CC(C)(C)CC4)c2n1 [compound 46]
11 | 36.6 | 700 | Cc1cc(C)n2ccc(C(=O)Nc3ccc(CCC(=O)O)cc3)c2n1 [compound 15]
12 | 4.47 | 810 | Cc1cc(C)n2ccc(C(=O)Nc3cccc(CCC(=O)ON4C(=O)CCC4=O)c3)c2n1 [compound 38]
13 | 2.24 | 298 | Cc1cc(C)n2ccc(C(=O)Nc3ccccc3Oc3ccccc3)c2n1 [compound 35]
14 | 6.46 |  | C=CC(=O)Nc1cccc(NC(=O)c2ccn3c(C)cc(C)nc23)c1 [compound 14]
15 | 3.43 | 480 | Cc1cc(C)n2ccc(C(=O)Nc3cccc(NC(=O)CCl)c3)c2n1 [compound 8]
16 | 1.58 | 342 | Cc1cc(C)n2ccc(C(=O)Nc3nc4c(s3)CCCC4)c2n1 [compound 44]
17 | 0.77 | 202 | Cc1cc(C)n2ccc(C(=O)Nc3cccc4c3CCC4)c2n1 [compound 10]
18 | 3.39 | 210 | Cc1cc(C)n2ccc(C(=O)Nc3cccc(N)c3)c2n1 [compound 7]
19 | 8.91 | 427 | Cc1cc(C)n2ccc(C(=O)Nc3cccc(CCC(=O)O)c3)c2n1 [compound 37]
20 | 3.55 | 578 | COC(=O)CCc1cccc(NC(=O)c2ccn3c(C)cc(C)nc23)c1 [compound 34]
21 | 1.41 | 400 | Cc1cc(C)n2ccc(C(=O)Nc3cccc4c3CCCC4)c2n1 [compound 11]
22 | 35.5 | 429 | Cc1cc(C)n2ccc(C(=O)Nc3ccc(CC(=O)O)cc3)c2n1 [compound 22]
23 | 1.41 | 296 | Cc1cc(C)n2ccc(C(=O)Nc3cccc(-c4ccccc4)c3)c2n1 [compound 43]
24 | 1.18 | 400 | CCOC(=O)c1cccc(NC(=O)c2ccn3c(C)cc(C)nc23)c1 [compound 4]

Row | AC50 [µM] | Emax [%] | SMILES
25 | 7.94 | 456 | Cc1cc(C)n2ccc(C(=O)Nc3ccc4c(c3)COC4)c2n1 [compound 25]
26 | 10 |  | COC(=O)Cc1cc(NC(=O)c2ccn3c(C)cc(C)nc23)ccc1-c1cn(CCOCCOCCO)nn1 [compound 39]
27 | 5 | 715 | Cc1cc(C)n2ccc(C(=O)NCc3ccccc3CNC(=O)c3ccn4c(C)cc(C)nc34)c2n1 [compound 42]
28 | 6.59 | 450 | COC(=O)Cc1cccc(NC(=O)c2ccn3c(C)cc(C)nc23)c1 [compound 1]
29 | 35.5 | 622 | Cc1cc(C)n2ccc(C(=O)Nc3ccc(C(=O)O)cc3)c2n1 [compound 21]
30 | 2.82 | 620 | Cc1cc(C)n2ccc(C(=O)Nc3ccc(CCC(=O)ON4C(=O)CCC4=O)cc3)c2n1 [compound 27]
31 | 2.23 | 280 | Cc1cc(C)n2ccc(C(=O)Nc3cccc(C(C)C)c3)c2n1 [compound 9]
32 | 28.2 |  | Cc1cc(C)n2ccc(C(=O)Nc3ccc(-c4cn(CCOCCOCCO)nn4)c(CC(=O)O)c3)c2n1 [compound 41]
33 | 10 | 172 | Cc1cc(C)n2ccc(C(=O)Nc3cccc(CC(=O)Oc4ccc([N+](=O)[O-])cc4)c3)c2n1 [compound 51]
34 | 4.59 | 460 | Cc1cc(C)n2ccc(C(=O)Nc3cccc(C(=O)ON4C(=O)CCC4=O)c3)c2n1 [compound 6]
35 | 2.87 | 175 | Cc1cc(C)n2ccc(C(=O)Nc3cccc(C(=O)O)c3)c2n1 [compound 5]
36 | 30 | 550 | Cc1cc(C)n2ccc(C(=O)Nc3cccc(CC(=O)O)c3)c2n1 [compound 2]
37 | 0.63 | 180 | COC(=O)CCc1ccc(NC(=O)c2ccn3c(C)cc(C)nc23)cc1 [compound 13]
38 | 1.49 | 225 | Cc1cc(C)n2ccc(C(=O)Nc3ccc4c(c3)C(=O)CC4)c2n1 [compound 16]
39 | 3.55 |  | Cc1cc(C)n2ccc(C(=O)Nc3ccc(CCCOCCOCCOCCOCCNC(=O)C4CCCCC4)c(CC(=O)ON4C(=O)CCC4=O)c3)c2n1 [compound 49]
40 | 3.44 | 300 | Cc1cc(C)n2ccc(C(=O)Nc3cccc(CC(C)C)c3)c2n1 [compound 12]
41 | 9.09 | 500 | Cc1cc(C)n2ccc(C(=O)Nc3cccc(CC(=O)ON4C(=O)CCC4=O)c3)c2n1 [compound 3, 2,5-dioxopyrrolidin-1-yl 2-(3-(2,4-dimethylpyrrolo[1,2-a]pyrimidine-8-carboxamido)phenyl)acetate]
42 | 28.2 | 644 | Cc1cc(C)n2ccc(C(=O)NCC3COc4ccccc4O3)c2n1 (stereo not shown) [compound 23]
43 | 4.47 |  | COC(=O)Cc1cc(NC(=O)c2ccn3c(C)cc(-c4cccnc4)nc23)ccc1-c1cn(CCOCCOCCO)nn1 [compound 40]
44 | 1 | 355 | Cc1cc(C)n2ccc(C(=O)Nc3ccc4c(c3)CCCC4=O)c2n1 [compound 31]
45 | 1.12 | 198 | Cc1cc(C)n2ccc(C(=O)Nc3ccc4c(c3)CCO4)c2n1 [compound 30]
46 | 1.78 | 325 | Cc1cc(C)n2ccc(C(=O)Nc3nc4c(s3)CC(C)CC4)c2n1 (stereo not shown) [compound 45]
47 | 50 | 115 | Cc1cc(C)n2ccc(C(=O)Nc3ccc(C(=O)ON4C(=O)CCC4=O)cc3)c2n1 [compound 28]
48 | 4.47 | 230 | Cc1cc(C)n2ccc(C(=O)Nc3cccc(CC(=O)Oc4ccccc4)c3)c2n1 [compound 50]
